Literature values, collected in PMC3433420 (PLoS ONE, 2012).
Like-named read-outs stand apart in the source and are kept apart here.

Target: SH2 and PTB domains
Conditions: cited from earlier work
Excerpt: Supplement pone.0044471.s022.xlsx, sheet "Most recent PM interactions" | column: Kd || Supplement pone.0044471.s022.xlsx, sheet "All original PM interactions" | column: Kd

[1] = Protein ABL2, most recent PM interactions, ref Jones et al. 2006 / Kaushansky et al. Mol Biosys 2008 / Kaushansky et al. Chem and Biol 2008
[2] = Protein RASA1-N, most recent PM interactions, ref Jones et al. 2006 / Kaushansky et al. Mol Biosys 2008 / Kaushansky et al. Chem and Biol 2008
[3] = Protein SHC1-PTB, most recent PM interactions, ref Jones et al. 2006 / Kaushansky et al. Mol Biosys 2008 / Kaushansky et al. Chem and Biol 2008
[4] = Protein SHC2-PTB, most recent PM interactions, ref Jones et al. 2006 / Kaushansky et al. Mol Biosys 2008 / Kaushansky et al. Chem and Biol 2008
[5] = Protein SYK-NC, most recent PM interactions, ref Jones et al. 2006 / Kaushansky et al. Mol Biosys 2008 / Kaushansky et al. Chem and Biol 2008
[6] = Protein PIK3R1-NC, most recent PM interactions, ref Jones et al. 2006 / Kaushansky et al. Mol Biosys 2008 / Kaushansky et al. Chem and Biol 2008
[7] = Protein PIK3R2-N, most recent PM interactions, ref Jones et al. 2006 / Kaushansky et al. Mol Biosys 2008 / Kaushansky et al. Chem and Biol 2008
[8] = Protein PIK3R2-NC, most recent PM interactions, ref Jones et al. 2006 / Kaushansky et al. Mol Biosys 2008 / Kaushansky et al. Chem and Biol 2008
[9] = Protein PIK3R3-N, most recent PM interactions, ref Jones et al. 2006 / Kaushansky et al. Mol Biosys 2008 / Kaushansky et al. Chem and Biol 2008
[10] = Protein PIK3R3-NC, most recent PM interactions, ref Jones et al. 2006 / Kaushansky et al. Mol Biosys 2008 / Kaushansky et al. Chem and Biol 2008
[11] = Protein VAV2, most recent PM interactions, ref Jones et al. 2006 / Kaushansky et al. Mol Biosys 2008 / Kaushansky et al. Chem and Biol 2008
[12] = Protein SHB, most recent PM interactions, ref Jones et al. 2006 / Kaushansky et al. Mol Biosys 2008 / Kaushansky et al. Chem and Biol 2008
[13] = Protein YES1, most recent PM interactions, ref Jones et al. 2006 / Kaushansky et al. Mol Biosys 2008 / Kaushansky et al. Chem and Biol 2008
[14] = Protein BLK, most recent PM interactions, ref Jones et al. 2006 / Kaushansky et al. Mol Biosys 2008 / Kaushansky et al. Chem and Biol 2008
[15] = Protein RASA1-N, original PM interactions, ref Jones et al. 2006 / Kaushansky et al. Chem and Biol 2008
[16] = Protein CRK, most recent PM interactions, ref Jones et al. 2006 / Kaushansky et al. Mol Biosys 2008 / Kaushansky et al. Chem and Biol 2008

For HQISLDNPDpYQQDFFPKd [ErbB1 1172], the Kd [1] is given as 490 nM, the Kd [2] is given as 1140 nM and the Kd [3] is given as 40 nM. The Kd [4] was 1310 nM and the Kd [5] was 1280 nM.

For HSTAVGNPEpYLNTVQPTd [ErbB1 1138], the Kd [1] is given as 120 nM, the Kd (Protein GRB2, most recent PM interactions, ref Jones et al. 2006 / Kaushansky et al. Mol Biosys 2008 / Kaushansky et al. Chem and Biol 2008) is given as 420 nM and the Kd (Protein ITK, most recent PM interactions, ref Jones et al. 2006 / Kaushansky et al. Mol Biosys 2008 / Kaushansky et al. Chem and Biol 2008) is given as 1760 nM. The Kd (Protein NCK2, most recent PM interactions, ref Jones et al. 2006 / Kaushansky et al. Mol Biosys 2008 / Kaushansky et al. Chem and Biol 2008) was 330 nM, the Kd [6] was 1570 nM and the Kd [7] was 760 nM. The Kd [8] was 860 nM, the Kd [9] was 840 nM and the Kd [10] was 1690 nM. For the same substance, the Kd [2] was 390 nM, the Kd [3] was 170 nM and the Kd [11] was 370 nM. The Kd (Protein ZAP70-NC, most recent PM interactions, ref Jones et al. 2006 / Kaushansky et al. Mol Biosys 2008 / Kaushansky et al. Chem and Biol 2008) was 1140 nM.

In the case of IKEDSFLQRpYSSDPTGAd [ErbB1 1069], the Kd [12] is listed as 860 nM and the Kd [13] is listed as 300 nM.

In the case of KGSTAENAEpYLRVAPQSd [ErbB1 1197], the Kd [1] is listed as 210 nM, the Kd [10] is listed as 1110 nM and the Kd [3] is listed as 320 nM.

For KLLGAEEKEpYHAEGGKVd [ErbB1 869], the Kd [1] is given as 1080 nM and the Kd [14] is given as 1710 nM.

For “KQLLpYSEAKTPId [ErbB3 pY868, N-terminally rhodamine-labeled 13-mer phosphopeptide]”, the Kd (Protein ABL2, original PM interactions, ref Jones et al. 2006 / Kaushansky et al. Chem and Biol 2008) is listed as 70 nM, the Kd (Protein BCAR3, original PM interactions, ref Jones et al. 2006 / Kaushansky et al. Chem and Biol 2008) is listed as 1780 nM and the Kd (Protein CRKL, original PM interactions, ref Jones et al. 2006 / Kaushansky et al. Chem and Biol 2008) is listed as 1760 nM. For the same substance, the Kd (Protein NCK2, original PM interactions, ref Jones et al. 2006 / Kaushansky et al. Chem and Biol 2008) was 2000 nM, the Kd (Protein PIK3R3-NC, original PM interactions, ref Jones et al. 2006 / Kaushansky et al. Chem and Biol 2008) was 2000 nM and the Kd [15] was 950 nM. For the same substance, the Kd (Protein SHC1-PTB, original PM interactions, ref Jones et al. 2006 / Kaushansky et al. Chem and Biol 2008) was 2000 nM and the Kd (Protein SYK-NC, original PM interactions, ref Jones et al. 2006 / Kaushansky et al. Chem and Biol 2008) was 920 nM.

In the case of LGSGAFGTVpYKGLWIPEd [ErbB1 727], the Kd (Protein SRC, most recent PM interactions, ref Kaushansky et al. Mol Biosys 2008) is given as 580 nM and the Kd (Protein YES1, most recent PM interactions, ref Kaushansky et al. Mol Biosys 2008) is given as 540 nM.

In the case of “LGYEpYMDVGSDLd [ErbB3 pY1224, N-terminally rhodamine-labeled 13-mer phosphopeptide]”, the Kd (Protein PLCG2-NC, original PM interactions, ref Jones et al. 2006 / Kaushansky et al. Chem and Biol 2008) is listed as 2000 nM, the Kd [15] is listed as 2000 nM and the Kd (Protein RASA1-NC, original PM interactions, ref Jones et al. 2006 / Kaushansky et al. Chem and Biol 2008) is listed as 2000 nM. For the same substance, the Kd (Protein SLA, original PM interactions, ref Jones et al. 2006 / Kaushansky et al. Chem and Biol 2008) was 2000 nM, the Kd (protein ABL2, ref Jones et al. 2006 / Kaushansky et al. Chem and Biol 2008) was 1130 nM and the Kd (protein PIK3R3-NC, ref Jones et al. 2006 / Kaushansky et al. Chem and Biol 2008) was 1510 nM.

For “LHRIpYTHQSDVWd [ErbB1 pY891, N-terminally rhodamine-labeled 13-mer phosphopeptide]”, the Kd (protein HSH2D, ref Kaushansky et al. Mol Biosys 2008) is listed as 1130 nM and the Kd (protein TNS4, ref Kaushansky et al. Mol Biosys 2008) is listed as 300 nM.

For LPPDDKQLLpYSEAKTPI [ErbB3 868], the Kd (Protein ABL2, most recent PM interactions, ref Jones et al. 2006 / Kaushansky et al. Chem and Biol 2008) is given as 70 nM, the Kd (Protein BCAR3, most recent PM interactions, ref Jones et al. 2006 / Kaushansky et al. Chem and Biol 2008) is given as 1780 nM and the Kd (Protein CRKL, most recent PM interactions, ref Jones et al. 2006 / Kaushansky et al. Chem and Biol 2008) is given as 1760 nM. For the same substance, the Kd (Protein RASA1-N, most recent PM interactions, ref Jones et al. 2006 / Kaushansky et al. Chem and Biol 2008) was 950 nM and the Kd (Protein SYK-NC, most recent PM interactions, ref Jones et al. 2006 / Kaushansky et al. Chem and Biol 2008) was 920 nM.

In the case of MDDVVDADEpYLIPQQGFd [ErbB1 1016], the Kd [1] is given as 280 nM, the Kd [14] is given as 660 nM and the Kd [16] is given as 470 nM. The Kd (Protein CRKL, most recent PM interactions, ref Jones et al. 2006 / Kaushansky et al. Mol Biosys 2008 / Kaushansky et al. Chem and Biol 2008) was 1000 nM, the Kd (Protein NCK1, most recent PM interactions, ref Jones et al. 2006 / Kaushansky et al. Mol Biosys 2008 / Kaushansky et al. Chem and Biol 2008) was 1000 nM and the Kd (Protein PIK3R1-C, most recent PM interactions, ref Jones et al. 2006 / Kaushansky et al. Mol Biosys 2008 / Kaushansky et al. Chem and Biol 2008) was 870 nM. For the same substance, the Kd (Protein PIK3R1-N, most recent PM interactions, ref Jones et al. 2006 / Kaushansky et al. Mol Biosys 2008 / Kaushansky et al. Chem and Biol 2008) was 900 nM, the Kd [6] was 180 nM and the Kd [7] was 420 nM. The Kd [8] was 350 nM, the Kd (Protein PIK3R3-C, most recent PM interactions, ref Jones et al. 2006 / Kaushansky et al. Mol Biosys 2008 / Kaushansky et al. Chem and Biol 2008) was 190 nM and the Kd [9] was 720 nM. The Kd [10] was 200 nM, the Kd (Protein PLCG1-NC, most recent PM interactions, ref Jones et al. 2006 / Kaushansky et al. Mol Biosys 2008 / Kaushansky et al. Chem and Biol 2008) was 790 nM and the Kd (Protein PTPN11-N, most recent PM interactions, ref Jones et al. 2006 / Kaushansky et al. Mol Biosys 2008 / Kaushansky et al. Chem and Biol 2008) was 380 nM. The Kd [2] was 490 nM, the Kd (Protein RASA1-NC, most recent PM interactions, ref Jones et al. 2006 / Kaushansky et al. Mol Biosys 2008 / Kaushansky et al. Chem and Biol 2008) was 1420 nM and the Kd [12] was 1990 nM. The Kd [3] was 630 nM, the Kd [4] was 660 nM and the Kd (Protein SHC3, most recent PM interactions, ref Jones et al. 2006 / Kaushansky et al. Mol Biosys 2008 / Kaushansky et al. Chem and Biol 2008) was 220 nM. For the same substance, the Kd (Protein SYK-C, most recent PM interactions, ref Jones et al. 2006 / Kaushansky et al. Mol Biosys 2008 / Kaushansky et al. Chem and Biol 2008) was 930 nM, the Kd [5] was 610 nM and the Kd (Protein TNS4, most recent PM interactions, ref Jones et al. 2006 / Kaushansky et al. Mol Biosys 2008 / Kaushansky et al. Chem and Biol 2008) was 920 nM. The Kd (Protein VAV1, most recent PM interactions, ref Jones et al. 2006 / Kaushansky et al. Mol Biosys 2008 / Kaushansky et al. Chem and Biol 2008) was 1050 nM and the Kd [11] was 85 nM.

In the case of NPAPSRDPHpYQDPHSTAd [ErbB1 1125], the Kd [1] is listed as 74 nM, the Kd (Protein BMX, most recent PM interactions, ref Jones et al. 2006 / Kaushansky et al. Mol Biosys 2008 / Kaushansky et al. Chem and Biol 2008) is listed as 1070 nM and the Kd [16] is listed as 1230 nM. The Kd [2] was 1320 nM, the Kd [12] was 990 nM and the Kd [5] was 980 nM. The Kd (Protein TNS1, most recent PM interactions, ref Jones et al. 2006 / Kaushansky et al. Mol Biosys 2008 / Kaushansky et al. Chem and Biol 2008) was 1280 nM and the Kd [13] was 380 nM.

In the case of PAGSVQNPVpYHNQPLNPd [ErbB1 1110], the Kd (Protein ABL1, most recent PM interactions, ref Jones et al. 2006 / Kaushansky et al. Mol Biosys 2008 / Kaushansky et al. Chem and Biol 2008) is listed as 520 nM, the Kd [1] is listed as 60 nM and the Kd [3] is listed as 320 nM.
